Assay results taken from PMC6675120, “Potent and selective inhibitors for M32 metallocarboxypeptidases identified from high-throughput screening of anti-kinetoplastid chemical boxes” (PLoS Neglected Tropical Diseases, 2019).
pIC50: −log10 of the molar value. Values joined by “and” are separate entries in the source; they are usually repeats but may differ in a detail not shown here. Equal entries are not always repeated. Where two headings read alike, the source gives them in different places.

Tests used:
TcMCP-1 = TcMCP-1 (Trypanosoma cruzi, UniProt Q6ZXC0); test: Continuous fluorogenic (FRET) TcMCP-1 assay with Abz-LKFK(Dnp)-OH, primary and secondary screening; assay type: biochemical; parameters: inhibition: dose or concentration left out as unconfirmed; conditions: for EDTA control (RFU/sec) Mean: EDTA final concentration 31,25 mM, inhibition control; for TcMCP-1 Hill Slope: four-parameter Hill fit of dose-response curve; for TcMCP-1 2º/1º ratio: secondary (31,5 µM) / primary (25 µM) inhibition; for TcMCP-1 Primary screening Inhibition (%) / inhibition at 25 µM: single inhibitor concentration 25 µM; for TcMCP-1 Secondary screening Inhibition (%): single inhibitor concentration 31,5 µM; for inhibition: read-out: TcMCP-1 Secondary screening Inhibition (%)
Procedure: (§1) TcMCP-1 (MEROPS ID: M32.003) and TbMCP-1 were expressed as GST fusion proteins in E. coli BL21 (DE3) Codon Plus and purified as previously described.
(§2) TbMCP-1 and TcMCP-1 activities were assayed fluorometrically with Abz-RFFK(Dnp)-OH and Abz-LKFK(Dnp)-OH substrates, respectively, in 100 mM MOPS pH 7,2 containing 0,01% Triton X-100. Assays were performed in solid black 384-well plates (final reaction volume ~80 μL) and the hydrolysis of the K(Dnp)-OH group was monitored continuously at 30 °C with a Beckman Coulter DTX 880 Multimode Reader (Radnor, Pennsylvania, USA) using standard 320 nm excitation and 420 nm emission filter set.
(§3) In all cases, EDTA (final concentration 31,25 mM) was used as positive inhibition control.
(§4) Then, 40 μL of 100 mM MOPS, 0,01% Triton X-100 pH 7,2 containing TbMCP-1 (2,50 nM) or TcMCP-1 (0,34 nM) were added to each well, plates were homogenized (30 seg, orbital, medium intensity) and each well subjected to a single autofluorescence read (ex/em = 320/420 nm). Plates were incubated in darkness for 15 min at 30 °C and then 40 μL of Abz-RFFK(Dnp)-OH (4 μM) or Abz-LKFK(Dnp)-OH (0,8 μM) in assay buffer were added to each well to start the reaction. After homogenization (30 seg, orbital, medium intensity), the fluorescence of the Abz group (ortho-aminobenzoic acid) (ex/em = 320/420 nm) was acquired kinetically for each well (8 read cycles, one cycle every 300 seconds). Considering our previous experiences, the auto-fluorescent cut-off was arbitrarily set at 2x10^5 RFU to discard highly interfering compounds. All compounds were assayed in singlet (without replicates) due to the limited availability of stocks.
(§5) Raw screening measurements were used to determine the slope (dF/dt) of progression curves by linear regression for control and non-interfering compound wells. In the case of control-dependent hit selection criteria, percent inhibition percentage (%Inh) was calculated for each compound according to the following equation: Inh=100∙[1−(dF/dt^WELL−μ^C−)/(μ^C+−μ^C−)] (1) where dF/dt^WELL represents the slope of each compound well and μ^C+ and μ^C− the average of MCP (no-inhibition) and substrate (no-enzyme) controls, respectively.
(§6) Compounds selected from primary screening were re-tested in a dose-response manner (final concentration ranging from 7,5 to 62,5 μM) using identical assay conditions. To avoid any positional and/or association bias, we randomly defined the row position for each compound. One μL of compounds stock (10 mM in DMSO) and EDTA (31,25 mM) were added to the first well of column 1, followed by addition of 40 μL of 100 mM MOPS, 0,01% Triton X-100 pH 7,2 buffer. After addition of 20 μL of the same buffer to subsequent wells of the plate, 22 serial 2-fold dilutions were made horizontally. The last two positions of every row were used, alternatively, for C^+ and C^− controls to reduce any positional and/or association bias. Then, 20 μL of activity buffer containing TbMCP-1 or TcMCP-1 were added to each well, except for those corresponding to C^−; completed with 20 μL of activity buffer. After homogenization, 15 minutes of incubation at 30°C and autofluorescence measurement, the substrate (in activity buffer) was added to the previous mix. Data collection and processing were performed exactly as described above. Percentage of M32 MCPs residual activity was calculated for each condition according to the following equation: %Res.Act^MCP=100∙[(dF/dt^WELL−μ^C−)/(μ^C+−μ^C−)] (2) where dF/dt^WELL represents the slope of each compound well and μ^C+ and μ^C− the average of MCP (no-inhibition) and substrate (no-enzyme) controls, respectively.

TbMCP-1 = TbMCP-1 (Trypanosoma brucei, UniProt Q386R0); test: Continuous fluorogenic (FRET) TbMCP-1 assay with Abz-RFFK(Dnp)-OH, primary and secondary screening; assay type: biochemical; conditions: for EDTA control (RFU/sec) Mean: EDTA final concentration 31,25 mM, inhibition control; for TbMCP-1 2º/1º ratio: secondary (31,5 µM) / primary (25 µM) inhibition; for TbMCP-1 Secondary screening Inhibition (%) / inhibition: single inhibitor concentration 31,5 µM; for TbMCP-1 Hill Slope: four-parameter Hill fit of dose-response curve; for inhibition at 25 µM: read-out: TbMCP-1 Primary screening Inhibition (%)
Procedure: as §1, §2, §3, §4, §5
as §6, with “To” for “Compounds selected from primary screening were re-tested in a dose-response manner (final concentration ranging from 7,5 to 62,5 μM) using identical assay conditions. To”

[1] = secondary screening, two-fold dilutions 7,5 pM to 62,5 μM, KM/[S] ~ 1, no replicates
[2] = single inhibitor concentration 25 µM

Chain of TbMCP-1 (Q386R0 entry or part of it): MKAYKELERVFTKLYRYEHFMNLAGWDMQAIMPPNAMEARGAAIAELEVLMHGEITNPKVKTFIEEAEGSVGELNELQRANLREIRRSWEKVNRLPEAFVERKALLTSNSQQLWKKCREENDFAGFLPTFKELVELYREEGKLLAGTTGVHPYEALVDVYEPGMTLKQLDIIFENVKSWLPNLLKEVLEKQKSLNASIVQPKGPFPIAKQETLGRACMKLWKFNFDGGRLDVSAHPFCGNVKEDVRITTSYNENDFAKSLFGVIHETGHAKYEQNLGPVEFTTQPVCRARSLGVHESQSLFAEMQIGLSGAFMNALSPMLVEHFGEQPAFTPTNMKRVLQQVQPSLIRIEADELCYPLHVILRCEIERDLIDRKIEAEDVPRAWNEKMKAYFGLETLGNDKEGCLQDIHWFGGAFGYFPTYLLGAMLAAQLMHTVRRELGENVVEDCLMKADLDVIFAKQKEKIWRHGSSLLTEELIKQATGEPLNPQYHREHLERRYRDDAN
Chain of TcMCP-1 (Q6ZXC0 entry or part of it): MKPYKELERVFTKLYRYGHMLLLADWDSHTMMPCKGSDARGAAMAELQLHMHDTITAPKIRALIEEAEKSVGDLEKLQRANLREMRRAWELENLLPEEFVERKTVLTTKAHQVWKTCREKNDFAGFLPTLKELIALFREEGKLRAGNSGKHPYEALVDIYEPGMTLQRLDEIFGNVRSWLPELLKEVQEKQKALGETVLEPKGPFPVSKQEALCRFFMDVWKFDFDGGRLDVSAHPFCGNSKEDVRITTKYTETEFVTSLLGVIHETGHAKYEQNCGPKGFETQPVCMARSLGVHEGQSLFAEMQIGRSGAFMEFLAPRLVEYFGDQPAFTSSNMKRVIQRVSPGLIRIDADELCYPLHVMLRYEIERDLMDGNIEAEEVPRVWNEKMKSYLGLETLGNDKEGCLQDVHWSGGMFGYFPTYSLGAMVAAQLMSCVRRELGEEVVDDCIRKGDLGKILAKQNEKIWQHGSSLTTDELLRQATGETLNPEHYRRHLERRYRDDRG

SMILES | pIC50 (TcMCP-1) | TcMCP-1 Hill Slope (TcMCP-1) | TcMCP-1 2º/1º ratio (TcMCP-1) | pIC50 (TcMCP-1; [1]) | TcMCP-1 Primary screening Inhibition (%) (TcMCP-1) | TcMCP-1 Secondary screening Inhibition (%) (TcMCP-1) | TbMCP-1 2º/1º ratio (TbMCP-1) | TbMCP-1 Secondary screening Inhibition (%) (TbMCP-1) | pIC50 (TbMCP-1) | TbMCP-1 Hill Slope (TbMCP-1) | inhibition at 25 µM (TbMCP-1; [2]) [%] | inhibition (TbMCP-1) [%] | TbMCP-1 Primary screening Inhibition (%) (TbMCP-1; [2]) | also measured
O=C(O)CN(CCN(CC(=O)O)CC(=O)O)CC(=O)O [EDTA, reference compound] |  |  |  |  |  |  |  |  |  |  |  |  |  | EDTA control (RFU/sec) Mean (TcMCP-1; Plate 1): 1,28 RFU/sec; EDTA control (RFU/sec) Mean (TcMCP-1; Plate 2): 2,32 RFU/sec; EDTA control (RFU/sec) Mean (TbMCP-1; Plate 1): 0,13 RFU/sec; EDTA control (RFU/sec) Mean (TbMCP-1; Plate 2): 0,39 RFU/sec
O=C(Nc1nc2cc(Cl)ccc2o1)c1cccc(Cl)c1 [TCMDC-143172] | 4.95 | -2,825 | 1,30 | ~5.00 | 65,01% | 84,56% | -0,04 | -1,57% |  |  |  |  |  | TbMCP-1 Primary screening Inhibition (%) (TbMCP-1; single inhibitor concentration 25 µM, 25 µM): 42,44%
O=c1[nH]c(C=Cc2cccc(OCCOc3ccccc3)c2)nc(O)c1[N+](=O)[O-] [TCMDC-143209] | 2.38 | -1,019 | 1,09 | ≥ 5.00 |  |  | 0,86 |  | 4.55 | -1,2405 | 50 | 42.9 |  | inhibition (TcMCP-1): 92.5%; inhibition at 25 µM (TcMCP-1): 85%
CCn1c(-c2nonc2N)nc2c(C(C)O)ncc(OC(CN)c3ccccc3)c21 (centres unmarked) [TCMDC-143323] |  |  |  |  |  |  | 1,00 |  |  | -0,894 | 87.2 | 87 |  | inhibition on TcMCP-1 (TcMCP-1): < 30%
Cl.NS(=O)(=O)c1ccc(Nc2ncc3cccc(OC4CCNCC4)c3n2)cc1 [TCMDC-143382] | 4.69 | -0,7277 | 1,18 |  | 53,63% | 63,12% | 0,99 | 57,14% | 4.65 | -0,7258 |  |  | 57,82% | 
CS(=O)(=O)c1cccc(CNC(=O)c2cncc(N3CCN(c4ccc(F)cc4)CC3)c2)c1 [TCMDC-143385] |  | -0,9614 | 1,88 | ≥ 5.00 and ~5.00 |  |  |  |  |  |  |  |  |  | inhibition (TcMCP-1): 80.8%; inhibition at 25 µM (TcMCP-1): 42.9%; inhibition at 25 µM (TbMCP-1): < 40%
O=C(c1cccc(Cl)c1Cl)N1CCn2c1nc(-c1ccncc1)cc2=O [TCMDC-143409] |  |  |  |  |  |  | 1,13 |  |  | -1,2409 | 68.9 | 78 |  | inhibition on TcMCP-1 (TcMCP-1): < 30%; pIC50 (TbMCP-1; [1]): 4.98
Fc1ccccc1N1CC2CCN(c3cccnc3)CC2C1 (centres unmarked) [TCMDC-143422] | 5.82 | -1,038 | 1,19 | ≥ 5.00 |  |  | 0,99 |  |  | -1,206 | 81.1 | 80.2 |  | inhibition (TcMCP-1): 93.9%; inhibition at 25 µM (TcMCP-1): 78.8%; pIC50 (TbMCP-1; [1]): 4.98
CCOC(=O)c1cn[nH]c1S(=O)(=O)N1CCC1c1ccccc1 (centres unmarked) [TCMDC-143456] |  | -0,9597 | 1,10 | ≥ 5.00 |  |  | 1,04 |  | 4.83 | -1,247 | 66.2 | 69 |  | inhibition (TcMCP-1): 97.7%; inhibition at 25 µM (TcMCP-1): 89.1%
COc1cc(Nc2nccc(Nc3onc(C)c3C)n2)cc(S(=O)(=O)C2CCOCC2)c1 [TCMDC-143462] | 4.81 | -0,9436 | 1,40 |  | 43,06% | 60,29% | 0,13 | 6,29% |  |  |  |  | 47,90% | 
COc1ccc2ncc(Cl)c(CCN3CC[C@@H](NCc4cc5c(cn4)OCS5)[C@H](O)C3)c2n1 [TCMDC-143513] | 4.87 | -0,9734 | 1,07 |  | 65,65% | 70,48% | 0,76 | 42,64% | 4.55 | -0,8371 |  |  | 56,08% | 
C[C@@H](Oc1cc(-n2cnc3ccc(O[C@H]4CCNC4)cc32)sc1C(N)=O)c1ccccc1Cl [TCMDC-143515] | 4.66 | -1,149 | 1,02 |  | 54,26% | 55,47% | 1,26 | 50,90% | 4.50 | -0,8447 |  |  | 40,42% | 
CN(CC1CCCO1)S(=O)(=O)c1ccc(C(=O)Nc2nc(-c3ccccn3)cs2)cc1 (centres unmarked) [TCMDC-143551] | 4.86 | -1,834 | 1,14 |  | 65,04% | 74,11% | 0,99 | 41,97% | 4.46 | -1,562 |  |  | 42,28% | 
Cc1cc(C)c(C#N)c(SCC(=O)c2ccc3c(c2)OCO3)n1 [TCMDC-143625] |  |  | 0,45 |  | 43,83% | 19,89% | 0,35 | 17,11% |  |  |  |  | 49,55% | 
